Measurements reported in patent US11753411B2, “Substituted pyrazolo[1,5-a]pyrimidines as TYK2 pseudokinase ligands” (Ventyx Biosciences, Inc., priority 2019, dated 2023).

tested on: IFN-a/Jak1 Tyk2; experiment: Co-stimulation assay in lysed whole blood: IFNa (JAK1/TYK2) stimulated STAT1 phosphorylation; format: cell-based; conditions: Homo sapiens, 20 min, 100 ng/mL IFNa (with 10 ng/mL GM-CSF), pSTAT by flow cytometry
Description: Example 12: Co-Stimulation Assay in Lysed Whole Blood; JAK2: GM-CSF Stimulated STAT5 Phosphorylation and JAK1/TYK2 Stimulated STAT1 Phosphorylation Assay
Human Blood Lysis Using Abcam's RBC Lysis Buffer
Dilute RBC lysis buffer to 1× in distilled water. Add 2 mL blood to 38 mL of 1×RBC-lysis buffer. Incubate for 15 mins at RT, in dark. Spin at 300 g, 5 mins, to collect the pellet. Re-lyse if necessary. Re-suspend pellet in 5 mL of cRPMI.
Compound and Cytokine Treatment
Aliquot 80 μL of lysed human blood in to wells of 96 deep-well plate. Add 10 μl of (10× conc.) of different concentrations of compounds to all wells except controls (unstained and unstimulated) and mix it with the help of 100 uL multichannel. Add 10 uL of RPMI media in controls. For dilution of compounds and dilution range please refer Appendix. Incubate on water bath or CO2 incubator for 1 hour at 37° C. Add 10 μl of (10× conc.) of cytokine mix (GM-CSF and IFNa) (final conc.10 ng/mL of GM-CSF and 100 ng/mL of IFNa) to each well except unstimulated and unstained controls and incubate further for 20 minutes on water bath at 37° C.
Add 900 μL of prewarmed 1× Fix/Lyse solution (Appendix) and mix it properly using 1000 μl multichannel, incubate further on water bath at 37° C. for 10 minutes (which includes time of addition). Centrifuge at 800×g for 5 minutes at 40° C.; remove 900 uL of supernatant and add 900 μL of 1×PBS. Centrifuge at 800×g for 5 minutes at 40° C., remove 900 μL of supernatant. Wash one more time with 900 μL of PBS (optional) and resuspend pellets in 100 uL of PBS.
Disrupt the pellet by gentle tapping and resuspend in 1000 μL of BD Phosflow Perm Buffer III and incubate plate on ice for 30 minutes. Centrifuge plate at 800×g for 5 minutes at 40° C. Wash two more times with 1000 μL of BD Pharmingen Stain Buffer.
Disrupt the pellet by gentle tapping. Resuspend pellets in 100 uL of Stain Buffer and add 5 μL of pSTAT5_AF488 Ab and 5 uL of pSTAT_PE in all wells except unstained control and mix properly using 200 μl multichannel, incubate overnight at […]. Add 900 μL of wash buffer and centrifuge at 1800 rpm for 3 minutes at 40° C. Wash one more time with 1000 μL of BD Pharmingen Stain Buffer. Finally resuspend the pellet in 300 uL of BD Pharmingen Stain Buffer. Transfer the cells to 96-well v-bottom plate and acquire the cells in Beckman Coulter CytExpert. Acquiring cells in Flow Cytometer: Keep the threshold value to 250 and cell concentration should not exceed 100-500 cells/μL. Acquire at least 5,000-10,000 cells.
RPMI 1640 Complete Medium: RPMI 1640 media+10% FBS.
Cytokine dilution: 1) GM-CSF Stock at 100 ug/mL. Prepare an intermediate dilution of 1 ug/mL by adding 2 uL of stock into 198 uL of cRPMI. Further dilute to 100 ng/mL by adding 100 uL of the intermediate stock to 900 uL of cRPMI. 2) IFNa Stock at 200 ug/mL. Dilute IFNa stock 1:200 by adding 5 uL of stock into the 1000 uL of 100 ng/mL GM-CSF working stock as above to give a combined working stock of 1000 ng/mL of IFNa and 100 ng/mL GM-CSF (10×). Keep it on ice until used.
Lyse/Fix buffer preparation: Dilute 5× Lyse/Fix buffer to 1× using MQ water and keep at 37° C. until used.
BD Phosflow perm buffer III: Keep on ice/fridge.

Which IC50 does the source give for `CNC(=O)Nc1cnn2c(NC)cc(Nc3ccccc3-c3ncco3)nc12` [Compound 71, 1-methyl-3-(7-(methylamino)-5-((2-(oxazol-2-yl)phenyl)amino)pyrazolo[1,5-a]pyrimidin-3-yl)urea] here?
The IC50 was < 1 µM.

How did the IC50 turn out when `CNc1cc(Nc2cccc3c2OCCO3)nc2c(NC(=O)NC3CCC3C#N)cnn12` (stereo not drawn) [Compound 43, 1-(2-cyanocyclobutyl)-3-(5-((2,3-dihydrobenzo[b][1,4]dioxin-5-yl)amino)-7-(methylamino)pyrazolo[1,5-a]pyrimidin-3-yl)urea] was run?
The IC50 was 1 to 10 µM.

How did the IC50 turn out when `CNc1cc(Nc2cccc3c2OCCO3)nc2c(NC(=O)N[C@H]3CC[C@H]3O)cnn12` [Compound 59, 1-(5-((2,3-dihydrobenzo[b][1,4]dioxin-5-yl)amino)-7-(methylamino)pyrazolo[1,5-a]pyrimidin-3-yl)-3-((1S,2R)-2-hydroxycyclobutyl)urea] was run?
Its IC50 is 1 to 10 µM.

With `CNC(=O)Nc1cnn2c(NC)cc(Nc3cc(C(F)(F)F)cc4c3OCCO4)nc12` [Compound 76, 1-methyl-3-(7-(methylamino)-5-((7-(trifluoromethyl)-2,3-dihydrobenzo[b][1,4]dioxin-5-yl)amino)pyrazolo[1,5-a]pyrimidin-3-yl)urea] as the molecule, how does the IC50 read?
Its IC50 is < 1 µM.

Which IC50 does the source give for `CNC(=O)Nc1cnn2c(NC)cc(Nc3ccccc3OC(C)C)nc12` [Compound 162, 1-(5-((2-isopropoxyphenyl)amino)-7-(methylamino)pyrazolo[1,5-a]pyrimidin-3-yl)-3-methylurea] here?
The IC50 was 1 to 10 µM.

For `CNc1cc(Nc2cccc3c2OCCO3)nc2c(NC(=O)N[C@@H]3C[C@@H]3F)c(C)nn12` [Compound 172, 1-(5-((2,3-dihydrobenzo[b][1,4]dioxin-5-yl)amino)-2-methyl-7-(methylamino)pyrazolo[1,5-a]pyrimidin-3-yl)-3-((1R,2S)-2-fluorocyclopropyl)urea], which IC50 is on record?
The IC50 was ≥ 10 µM.

With `CNc1cc(Nc2cc(F)cc3c2OCCO3)nc2c(NC(=O)NCCC(F)F)cnn12` [Compound 178, 1-(3,3-difluoropropyl)-3-(5-((7-fluoro-2,3-dihydrobenzo[b][1,4]dioxin-5-yl)amino)-7-(methylamino)pyrazolo[1,5-a]pyrimidin-3-yl)urea] as the molecule, how does the IC50 read?
The IC50 was < 1 µM.

How did the IC50 turn out when `CNc1cc(Nc2cccc3c2OCCO3)nc2c(NC(=O)NCC(F)(F)F)cnn12` [Compound 99, 1-(5-((2,3-dihydrobenzo[b][1,4]dioxin-5-yl)amino)-7-(methylamino)pyrazolo[1,5-a]pyrimidin-3-yl)-3-(2,2,2-trifluoroethyl)urea] was run?
Its IC50 is < 1 µM.

For `CNc1cc(Nc2cc(F)cc3c2OCCO3)nc2c(NC(=O)N[C@H]3C[C@H]3F)cnn12` [Compound 42, 1-(5-((7-fluoro-2,3-dihydrobenzo[b][1,4]dioxin-5-yl)amino)-7-(methylamino)pyrazolo[1,5-a]pyrimidin-3-yl)-3-((1S,2R)-2-fluorocyclopropyl)urea], which IC50 is on record?
The IC50 was < 1 µM.

With `CNC(=O)Nc1cnn2c(NC)cc(Nc3cc(OC)ccc3OC)nc12` [Compound 67, 1-(5-((2,5-dimethoxyphenyl)amino)-7-(methylamino)pyrazolo[1,5-a]pyrimidin-3-yl)-3-methylurea] as the molecule, how does the IC50 read?
Its IC50 is 1 to 10 µM.

How did the IC50 turn out when `CNC(=O)Nc1cnn2c(NC)cc(Nc3cccc4c3OC(C)(C)O4)nc12` [Compound 116, 1-(5-((2,2-dimethylbenzo[d][1,3]dioxol-4-yl)amino)-7-(methylamino)pyrazolo[1,5-a]pyrimidin-3-yl)-3-methylurea] was run?
The IC50 was 1 to 10 µM.

With `CNc1cc(Nc2cc(C)cc3c2OCCO3)nc2c(NC(=O)NC3CC3)cnn12` [Compound 79, 1-cyclopropyl-3-(5-((7-methyl-2,3-dihydrobenzo[b][1,4]dioxin-5-yl)amino)-7-(methylamino)pyrazolo[1,5-a]pyrimidin-3-yl)urea] as the molecule, how does the IC50 read?
Its IC50 is 1 to 10 µM.

With `[2H]C([2H])([2H])Nc1cc(Nc2cc(F)cc3c2OC([2H])([2H])C([2H])([2H])O3)nc2c(NC(=O)N[C@@H]3C[C@@H]3F)cnn12` [Compound 181, 1-(5-((7-fluoro-2,3-dihydrobenzo[b][1,4]dioxin-5-yl-2,2,3,3-d4)amino)-7-((methyl-d3)amino)pyrazolo[1,5-a]pyrimidin-3-yl)-3-((1R,2S)-2-fluorocyclopropyl)urea] as the molecule, how does the IC50 read?
Its IC50 is < 1 µM.

How did the IC50 turn out when `CNc1cc2nc3c(cnn13)NC(=O)NCCc1cccc(c1)N2` [Compound 25, (1^3E,1^4E)-1^7-(methylamino)-2,6,8-triaza-1(5,3)-pyrazolo[1,5-a]pyrimidina-3(1,3)-benzenacyclooctaphan-7-one] was run?
Its IC50 is < 1 µM.

How did the IC50 turn out when `CNc1cc(Nc2cccc3c2OCCO3)nc2c(NC(=O)NCCO)cnn12` [Compound 145, 1-(5-((2,3-dihydrobenzo[b][1,4]dioxin-5-yl)amino)-7-(methylamino)pyrazolo[1,5-a]pyrimidin-3-yl)-3-(2-hydroxyethyl)urea] was run?
The IC50 was 1 to 10 µM.

With `CNc1cc(Nc2cccc3c2OCCO3)nc2c(NC(=O)NCCC(F)F)cnn12` [Compound 179, 1-(3,3-difluoropropyl)-3-(5-((2,3-dihydrobenzo[b][1,4]dioxin-5-yl)amino)-7-(methylamino)pyrazolo[1,5-a]pyrimidin-3-yl)urea] as the molecule, how does the IC50 read?
Its IC50 is < 1 µM.

Which IC50 does the source give for `CNc1cc(Nc2cccc3c2OCCO3)nc2c(NC(=O)NCC(C)(C)CO)cnn12` [Compound 141, 1-(5-((2,3-dihydrobenzo[b][1,4]dioxin-5-yl)amino)-7-(methylamino)pyrazolo[1,5-a]pyrimidin-3-yl)-3-(3-hydroxy-2,2-dimethylpropyl)urea] here?
Its IC50 is 1 to 10 µM.

How did the IC50 turn out when `[2H]C([2H])([2H])Nc1cc(-c2cn(C3CCOC3)c3ncccc23)nc2c(NC(=O)NC)cnn12` (stereo not drawn) [Compound 75, 1-methyl-3-(7-((methyl-d3)amino)-5-(1-(tetrahydrofuran-3-yl)-1H-pyrrolo[2,3-b]pyridin-3-yl)pyrazolo[1,5-a]pyrimidin-3-yl)urea] was run?
Its IC50 is < 1 µM.

With `CNc1cc(Nc2cc(C)cc(C)c2)nc2c(NC(=O)NCC#N)cnn12` [Compound 128, 1-(cyanomethyl)-3-(5-((3,5-dimethylphenyl)amino)-7-(methylamino)pyrazolo[1,5-a]pyrimidin-3-yl)urea] as the molecule, how does the IC50 read?
The IC50 was < 1 µM.

With `C#CCNC(=O)Nc1cnn2c(NC)cc(Nc3c(F)ccc4c3OCCO4)nc12` [Compound 135, 1-(5-((6-fluoro-2,3-dihydrobenzo[b][1,4]dioxin-5-yl)amino)-7-(methylamino)pyrazolo[1,5-a]pyrimidin-3-yl)-3-(prop-2-yn-1-yl)urea] as the molecule, how does the IC50 read?
Its IC50 is 1 to 10 µM.

Which IC50 does the source give for `CNC(=O)Nc1cnn2c(NC)cc(-c3c[nH]c4ncccc34)nc12` [Compound 88, 1-methyl-3-(7-(methylamino)-5-(1H-pyrrolo[2,3-b]pyridin-3-yl)pyrazolo[1,5-a]pyrimidin-3-yl)urea] here?
The IC50 was 1 to 10 µM.

With `CNc1cc(Nc2cccnc2OC(F)F)nc2c(NC(=O)N[C@@H]3C[C@@H]3F)cnn12` [Compound 171, 1-(5-((2-(difluoromethoxy)pyridin-3-yl)amino)-7-(methylamino)pyrazolo[1,5-a]pyrimidin-3-yl)-3-((1R,2S)-2-fluorocyclopropyl)urea] as the molecule, how does the IC50 read?
Its IC50 is 1 to 10 µM.

`CNC(=O)Nc1cnn2c(NC)cc(Nc3c(F)cccc3F)nc12` [Compound 90, 1-(5-((2,6-difluorophenyl)amino)-7-(methylamino)pyrazolo[1,5-a]pyrimidin-3-yl)-3-methylurea] was tested. Which IC50 did it give?
The IC50 was 1 to 10 µM.

`CNC(=O)Nc1cnn2c(NC)cc(Nc3ccc(OC)cc3)nc12` [Compound 151, 1-(5-((4-methoxyphenyl)amino)-7-(methylamino)pyrazolo[1,5-a]pyrimidin-3-yl)-3-methylurea] was tested. Which IC50 did it give?
The IC50 was 1 to 10 µM.
